Read-outs that look alike come from different tables or passages of the source.
Molecular target: T1, E. coli DdlB enzyme (D-alanine:D-alanine ligase) (Escherichia coli, UniProt P07862)
T1 construct: made in house; host or cells: E. coli
Experiment: biochemical
Settings: read-out: DdlB RA; for remaining activity at 2500 µM: tested concentration 2.5 mM; for remaining activity at 1800 µM: tested concentration 1.8 mM; for remaining activity at 2300 µM: tested concentration 2.3 mM; for remaining activity at 1700 µM: tested concentration 1.7 mM; for remaining activity at 2000 µM: tested concentration 2.0 mM; for remaining activity at 2400 µM: tested concentration 2.4 mM; for remaining activity at 3900 µM: tested concentration 3.9 mM; for remaining activity at 2100 µM: tested concentration 2.1 mM; for remaining activity at 2600 µM: tested concentration 2.6 mM; for remaining activity at 1900 µM: tested concentration 1.9 mM; for remaining activity at 2200 µM: tested concentration 2.2 mM; for remaining activity at 5000 µM: tested concentration 5.0 mM; for remaining activity at 2800 µM: tested concentration 2.8 mM

O=C(O)CCc1cc(=O)[nH]o1 [Compound 8019-7777]
remaining activity at 3200 µM (tested concentration 3.2 mM): 91%

O=C(O)Cc1n[nH]c(-c2ccncc2)n1 [Compound 8019-7883]
remaining activity at 2500 µM: 97%

O=C(O)c1ccccc1-c1ncc[nH]1 [Compound 8019-7907]
remaining activity at 2700 µM (tested concentration 2.7 mM): 102%

Cc1cc(C)c2ccc(C(=O)O)cc2n1 [Compound 8019-7912]
remaining activity at 2500 µM: 88%

O=C(O)C1CCN(c2nc3cc(Cl)ccc3o2)CC1 [Compound 8019-8559]
remaining activity at 1800 µM (fragment library screening): 93%

Cn1ccnc1S(=O)(=O)O [Compound 8019-8648]
remaining activity at 3100 µM (tested concentration 3.1 mM): 92%

Cn1nnc(-c2ccc(C(=O)O)c(N)c2)n1 [Compound 8019-8673]
remaining activity at 2300 µM (residual activity): 115%

O=C(Cc1n[nH]c(-c2cccnc2)n1)NCC1CCCO1 (centres unmarked) [Compound 8019-9738]
remaining activity at 1700 µM (residual activity): 94%

N#Cc1cccc2[nH]ccc12 [Compound 8019-9980]
remaining activity at 4200 µM: 101%

COc1cccc2c(O)c(C(=O)O)cnc12 [Compound 8019-9999]
remaining activity at 2300 µM (residual activity): 78%

CC(=O)Nc1cc(-n2cnnc2)ccc1C(=O)O [Compound 8020-0076]
remaining activity at 2000 µM (residual activity): 97%

O=C(O)CCCC1C(=O)Nc2ccccc21 (centres unmarked) [Compound 8020-0144]
remaining activity at 2300 µM: 93%

OC12CC3CC(C1)CC(NCc1cccnc1)(C3)C2 [Compound 8020-0633]
remaining activity at 1800 µM: 92%

Cc1nnc(-c2ccc(C(=O)O)c(N)c2)o1 [Compound 8020-0732]
remaining activity at 2300 µM (residual activity): 114%

O=C(Cc1nc(-c2ccccn2)n[nH]1)NCC1CCCO1 (centres unmarked) [Compound 8020-1329F]
remaining activity at 1700 µM (residual activity): 104%

O=C(O)Cc1nc(-c2cnccn2)n[nH]1 [Compound 8020-1590]
remaining activity at 2400 µM: 102%

O=C(O)c1cccnc1NCc1ccc(F)cc1 [Compound 8020-1800]
remaining activity at 2000 µM (residual activity): 102%

Nc1ccc2ncc(C(=O)O)c(O)c2c1 [Compound 8020-1815]
remaining activity at 2500 µM: 42%

OCc1noc(C2CC2)n1 [Compound 8020-1925]
remaining activity at 3900 µM (residual activity of DdlB, fragment library screening): 98%

O=C1CC(c2ccccc2)c2snc(C(=O)O)c2N1 (centres unmarked) [Compound 8020-2209]
remaining activity at 1800 µM (residual activity): 94%

O=C(O)c1cnc(-c2ccc(F)cc2)[nH]c1=O [Compound 8020-2279]
remaining activity at 2100 µM (residual activity): 94%

COc1cccc(F)c1B(O)O [Compound 8020-2294]
remaining activity at 2900 µM: 97%

Nc1c(C(=O)O)cnc2ccc(F)cc12 [Compound 8020-2302]
remaining activity at 2400 µM: 93%

O=C(O)CCc1cn2cccnc2n1 [Compound 8020-2316]
remaining activity at 2600 µM: 94%

O=C(O)c1[nH]c2ccc(F)cc2c1Br [Compound 8020-2406]
remaining activity at 1900 µM (residual activity): 89%

O=C(O)c1cc(O)no1 [Compound 8020-2787]
remaining activity at 3900 µM: 92%

N#CC1CC(c2cccc(Cl)c2)=NO1 (centres unmarked) [Compound 8020-2797]
remaining activity at 2900 µM (tested concentration 2.9 mM): 107%

COc1cccc(-c2ncc(C(=O)O)c(=O)[nH]2)c1 [Compound 8020-2801]
remaining activity at 2000 µM (residual activity): 92%

CCc1ccc(S(N)(=O)=O)cc1N [Compound 8020-2865]
remaining activity at 2500 µM: 97%

O=C(O)c1ncoc1-c1ccc2c(c1)OCCO2 [Compound 8020-3638]
remaining activity at 2000 µM (residual activity): 62%

O=C(O)c1cnc(-c2cccnc2)[nH]c1=O [Compound 8020-5063]
remaining activity at 2300 µM (residual activity): 94%

O=C1CC(c2cccc(O)c2)c2snc(C(=O)O)c2N1 (centres unmarked) [Compound 8020-5288]
remaining activity at 1700 µM (residual activity): 114%

O=C(O)c1cnc(-c2ccc(F)cc2)nc1 [Compound 8020-5433]
remaining activity at 2300 µM: 81%

Brc1ccc(-c2nc[nH]n2)cc1 [Compound 8020-5438]
remaining activity at 2200 µM (residual activity): 88%

O=C(O)Cc1nc(-c2cncc(Br)c2)n[nH]1 [Compound 8020-5455]
remaining activity at 1800 µM (residual activity): 94%

OC1CCCc2[nH]nc(-c3ccccc3)c21 (centres unmarked) [Compound 8020-5457]
remaining activity at 2300 µM: 96%

O=C1C=C(O)CO1 [Compound 8020-5738]
remaining activity at 5000 µM: 98%

Nc1n[nH]c(-c2ccccc2C(=O)O)n1 [Compound 8020-6003]
remaining activity at 2500 µM: 98%

O=S(=O)(O)c1nnc(-c2ccncc2)[nH]1 [Compound 8020-6014]
remaining activity at 2200 µM: 80%

Cn1c(-c2ccco2)nnc1S(=O)(=O)O [Compound 8020-6142]
remaining activity at 2200 µM: 90%

N#Cc1c2c([nH]c(=O)c1C(=O)O)CCCCCC2 [Compound 8020-6316]
remaining activity at 2000 µM: 91%

CCc1c(C)[nH]c(=O)c(C(=O)O)c1C(N)=O [Compound 8020-6319]
remaining activity at 2200 µM (residual activity): 72%

Cn1nccc1-c1cccc(B(O)O)c1 [Compound 8020-6599]
remaining activity at 2500 µM: 93%

COc1cc(C#N)cc2[nH]c(=O)oc12 [Compound 8020-7090]
remaining activity at 2600 µM: 97%

O=c1[nH]c2ccc(O)cc2o1 [Compound 8020-7157]
remaining activity at 3300 µM (tested concentration 3.3 mM): 96%

O=S(=O)(O)c1ccc2[nH]nnc2c1 [Compound 8020-8129]
remaining activity at 2500 µM: 93%

Nc1cc(=O)[nH]o1 [Compound 8020-8247]
remaining activity at 5000 µM: 97%

Cc1ccc(C(C)C)cc1S(=O)(=O)O [Compound 8020-8310]
remaining activity at 2300 µM: 91%

O=C(O)Cn1nnc(-c2cccc(-n3cccn3)c2)n1 [Compound 8020-8838]
remaining activity at 1900 µM (fragment library screening): 92%

CCC[C@@H]1Cc2nc(O)c(C(=O)O)cc2CO1 [Compound 8330-0016]
remaining activity at 2100 µM: 75%

O=C(O)c1ccccc1NCCc1ccc(Cl)cc1 [Compound 8524-6914]
remaining activity at 1800 µM (residual activity): 105%

CCN1CCOC(=O)C1CC(=O)Nc1ccc(F)cc1 (centres unmarked) [Compound 8563-1154]
remaining activity at 2000 µM (residual activity): 88%

Oc1nc(-c2ccc(F)cc2)no1 [Compound C066-5406]
remaining activity at 2800 µM: 97%

Cc1ccc(-c2noc(O)n2)cc1 [Compound C066-5428]
remaining activity at 2800 µM: 95%

O=C(O)C1CCCCN1S(=O)(=O)c1ccc(F)cc1 (centres unmarked) [Compound C155-0476]
remaining activity at 2100 µM (residual activity): 90%

COc1ncccc1S(=O)(=O)N1CCCCC1 [Compound C200-8263]
remaining activity at 2300 µM: 100%

O=C(O)c1cccn2c(=O)c3cc(F)ccc3nc12 [Compound C200-9599]
remaining activity at 1900 µM (residual activity): 85%

Cc1ccc2nc3c(C(=O)O)cccn3c(=O)c2c1 [Compound C200-9601]
remaining activity at 2000 µM (residual activity): 75%

O=C(O)c1cccn2c(=O)c3cc(Cl)ccc3nc12 [Compound C200-9602]
remaining activity at 1800 µM (residual activity): 78%

CCOC(=O)c1cn[nH]c1O [Compound C201-1623]
remaining activity at 3200 µM: 101%

Cc1nc(N(C)C)ncc1C(=O)O [Compound C430-1216]
remaining activity at 2800 µM: 88%

COCC(C)NC(=O)c1cc(C)no1 (centres unmarked) [Compound C625-0074]
remaining activity at 2800 µM: 96%

CCCNc1c(N2CCCC(C(=O)OCC)C2)c(=O)c1=O (centres unmarked) [Compound C738-0118]
remaining activity at 1700 µM: 108%

N#Cc1ccccc1OCC(=O)O [Compound C790-0277]
remaining activity at 2800 µM: 96%

CC(=O)N1C(C(=O)O)CSC1c1ccc(C)cc1 (centres unmarked) [Compound C796-0200]
remaining activity at 1900 µM: 90%

O=C(Cn1cc2c(n1)CCCC2)Nc1ccc(F)cc1 [Compound C881-0402]
remaining activity at 2000 µM (residual activity): 79%

O=C(O)COCC(=O)Nc1ccc(-c2nn[nH]n2)cc1 [Compound D047-0107]
remaining activity at 1800 µM (fragment library screening): 93%

CCCCCC(C)n1nc(O)cc1N (centres unmarked) [Compound D068-0217]
remaining activity at 2500 µM: 103%

CCCC(CCC)n1nc(O)cc1N [Compound D068-0218]
remaining activity at 2500 µM: 100%

CCCCC(CC)n1nc(O)cc1N (centres unmarked) [Compound D068-0219]
remaining activity at 2500 µM: 100%

CC1CN(C)C(C)CC1n1nc(O)cc1N (centres unmarked) [Compound D068-0221]
remaining activity at 2200 µM: 101%

COCCn1c(CCC(=O)O)ccc1-c1ccccc1 [Compound D135-0001]
remaining activity at 1800 µM: 90%

O=C(O)CC1C(=O)NCCN1C1Cc2ccccc2C1 (centres unmarked) [Compound D236-0050]
remaining activity at 2000 µM (residual activity): 103%

C=CCn1c(N2CCC(C(=O)O)CC2)nc2ccccc21 [Compound D264-0028]
remaining activity at 1800 µM (fragment library screening): 86%

COc1ccc2ncc(C(=O)O)c(O)c2c1 [Compound D284-0199]
remaining activity at 2300 µM: 66%

CC1CCCN(C(=O)c2nc[nH]c2C(=O)NC(C)C)C1 (centres unmarked) [Compound D340-0776]
remaining activity at 2000 µM (residual activity): 96%

CCS(=O)(=O)N1CCCc2cc(C(=O)NC)ccc21 [Compound D348-0142]
remaining activity at 2100 µM (residual activity): 92%

CNC(=O)C1CCCN(S(=O)(=O)c2cccs2)C1 (centres unmarked) [Compound D356-2306]
remaining activity at 1900 µM (residual activity): 86%

CCS(=O)(=O)N1CCCC1c1ccc(C)cc1 (centres unmarked) [Compound D399-0123]
remaining activity at 2400 µM: 89%

CCS(=O)(=O)N1CCCC1c1ccccc1F (centres unmarked) [Compound D399-0515]
remaining activity at 2300 µM: 95%

O=c1[nH]c(O)ncc1S(=O)(=O)NC1CCCCC1 [Compound D668-0013]
remaining activity at 1800 µM (residual activity): 99%

Cc1ccc(NS(=O)(=O)c2cnc(O)[nH]c2=O)c(C)c1 [Compound D668-0040]
remaining activity at 1700 µM: 91%

O=c1[nH]c(O)ncc1S(=O)(=O)N1CCCC1 [Compound D668-0107]
remaining activity at 2000 µM (residual activity): 94%

From publication PMC9718554, “Discovery of a fragment hit compound targeting D-Ala:D-Ala ligase of bacterial peptidoglycan biosynthesis” (Journal of Enzyme Inhibition and Medicinal Chemistry, 2022)
